Entries after “also recorded” stand apart in the source; their conditions may differ.
How the values were obtained:
[1] = molecular target: β-galactoside-α-2, 6-sialyltransferase; test: Inhibition of β-galactoside-α-2,6-sialyltransferase enzyme activity (biosynthesis of sugar chains containing sialic acid, test system of Paulson et al.); type: biochemical; details: β-galactoside-α-2,6-sialyltransferase 1×10^-6 units, 0.075 nmol CMP-14C sialic acid, 3 mM β-methyllactosaminide, pH 6.5, 37° C., 10 minutes; read-out: 50% activity inhibition concentration
Protocol: In other words, the tests were conducted using a test system of the biosynthesis of sialic acid-sugar chains containing sialic acid which was reported by Paulson et al.
A tester solution was prepared containing the following respective reagents in 50 μl of final contents:
100 mM sodium cacodylate buffer solution (pH 6.5);
0.075 nmol cytidine-monophosphate-14C sialic acid;
3 mM β-methyllactosaminide;
A specimen compound was added in 50 μl of the tester solution, and, with addition of 1×10^-6 units of β-galactoside-α-2, 6-sialyltransferase commercially available, the mixture was left to stand at 37° C. for 10 minutes. 1 ml of 5 mM phosphoric acid buffer solution was added to stop the reaction. Then the solution was passed through an anion-exchange resin column (Dowex-1X8, phosphoric acid type, 1 ml) to remove unreacted cytidine-monophosphate-14C sialic acid. Further, the column was washed with 1 ml of 5 mM phosphoric acid buffer solution to recover radioactive sialic acid-containing sugar chains. The radioactivity was measured by a liquid scintillation counter.
The thus-measured radioactivity was shown by percentage to the radioactivity of untreated section not including the specimen compound, which was defined as inhibition activity.

[2] = Solubility (physical properties); type: physicochemical; details: qualitative, in words
[3] = Stability in acid (physical properties); type: physicochemical

Molecule | IC50 [1] [µM] | Solubility [2] | Decomposition in acid [3]
2-acetamide-2-deoxy-4-O-(6-deoxy-β-D-galactopyranosyl)-β-D-glucopyranosylated ovalbumin [Sugar compound C, sugar compound represented by the aforementioned formula (1) in which R^1 is ovalbumin and R^2 is hydrogen] | 10 | – | –
2-acetamide-2-deoxy-4-O-(6-deoxy-β-D-galactopyranosyl)-β-D-glucopyranosylated α2-macroglobulin [Sugar compound F] | 1 | Soluble in water and various buffer solutions. Hardly soluble in organic solvents. | –
2-acetamide-2-deoxy-4-O-( 6-deoxy-β-D-galactopyranosyl)-β -D-glucopyranosylated fetuin [Sugar compound D] | 4.2 | Soluble in water and various buffer solutions. Hardly soluble in organic solvents. | –
CO[C@@H]1O[C@H](CO)[C@@H](O[C@@H]2O[C@H](C)[C@H](O)[C@H](O)[C@H]2O)[C@H](O)[C@H]1NC(C)=O [Sugar compound A, methyl-2-acetamide-2-deoxy-4-O-(6-deoxy-β-D-galactopyranosyl)-β-D-glucopyranoside] | – | Soluble in water, alkaline solutions, acid solutions, various buffer solutions, methanol, and ethanol. Hardly soluble in hexane and in chloroform. | –
CC(=O)N[C@H]1C(O)O[C@H](CO)[C@@H](O[C@@H]2O[C@H](C)[C@H](O)[C@H](O)[C@H]2O)[C@@H]1O (stereo partly drawn) [Sugar compound B, α- and β-2-acetamide-2-deoxy-4-O-(6-deoxy-β-D-galactopyranosyl)-D-glucose] | – | Soluble in water, alkaline solutions, acid solutions, various buffer solutions, methanol, and ethanol. Hardly soluble in hexane and in chloroform. | –
CO[C@@H]1O[C@H](CO)[C@@H](O[C@@H]2O[C@H](COC3CCCCO3)[C@H](O)[C@H](O)[C@H]2O)[C@H](O)[C@H]1NC(C)=O (stereo partly drawn) [Sugar compound G, methyl-2-acetamide-2-deoxy-4-O-(6-O-tetrahydropyranyl-β-D-galactopyranosyl)-β-D-glucopyranoside] | – | Soluble in water, alkaline solutions, acid solutions, various buffer solutions, methanol, and ethanol. Hardly soluble in hexane and in chloroform. | –
CO[C@@H]1O[C@H](CO)[C@@H](O[C@@H]2O[C@H](CS)[C@H](O)[C@H](O)[C@H]2O)[C@H](O)[C@H]1NC(C)=O [Sugar compound H, methyl-2-acetamide-2-deoxy-4-O-(6-mercapto-β-D-galactopyranosyl)-β-D-glucopyranoside] | – | Soluble in water, alkaline solutions, acid solutions, various buffer solutions, methanol, and ethanol. Hardly soluble in hexane and in chloroform. | –
C[C@H]1O[C@H](OP(=O)(O)OP(=O)(O)OC[C@H]2O[C@@H](n3ccc(=O)[nH]c3=O)[C@H](O)[C@@H]2O)[C@H](O)[C@@H](O)[C@H]1O [intermediate b, uridine 5'-diphosphate-6-deoxy-D-galactose] | – | Soluble in water, alkaline solutions, and various buffer solutions; also recorded: Hardly soluble in organic solvents | Decomposed in acid
CO[C@@H]1O[C@H](COC(C)=O)[C@@H](O[C@@H]2O[C@@H]3COC(c4ccccc4)O[C@@H]3[C@H](OC(C)=O)[C@H]2OC(C)=O)[C@H](OC(C)=O)[C@H]1NC(C)=O (stereo partly drawn) [intermediate c, methyl-2-acetamide-3,6-di-O-acetyl-2-deoxy-4-O-(2,3-di-O-acetyl-4,6-O-benzylidene-β-D-galactopyranosyl)-β-D-glucopyranoside] | – | Soluble in chloroform, methanol, and ethanol. Hardly soluble in water and various buffer solutions. | –
CO[C@@H]1O[C@H](COC(C)=O)[C@@H](O[C@@H]2O[C@H](CO)[C@H](O)[C@H](OC(C)=O)[C@H]2OC(C)=O)[C@H](OC(C)=O)[C@H]1NC(C)=O [intermediate d, methyl-2-acetamide-3,6-di-O-acetyl-2-deoxy-4-O-(2,3-di-O-acetyl-β-D-galactopyranosyl)-β-D-glucopyranoside] | – | Soluble in chloroform, methanol, and ethanol. Hardly soluble in water and various buffer solutions. | –
CO[C@@H]1O[C@H](COC(C)=O)[C@@H](O[C@@H]2O[C@H](CO[Si](C)(C)C(C)(C)C)[C@H](OC(C)=O)[C@H](OC(C)=O)[C@H]2OC(C)=O)[C@H](OC(C)=O)[C@H]1NC(C)=O [intermediate e, methyl-2-acetamide-3,6-di-O-acetyl-2-deoxy-4-O-(2,3,4-tri-O-acetyl-6-O-t-butyldimethylsilyl-β-D-galactopyranosyl)-β-D-glucopyranoside] | – | Soluble in chloroform, methanol, and ethanol. Hardly soluble in water and various buffer solutions. | –
CO[C@@H]1O[C@H](COC(C)=O)[C@@H](O[C@@H]2O[C@H](CO)[C@H](OC(C)=O)[C@H](OC(C)=O)[C@H]2OC(C)=O)[C@H](OC(C)=O)[C@H]1NC(C)=O [intermediate f, methyl-2-acetamide-3,6-di-O-acetyl-2-deoxy-4-O-(2,3,4-tri-O-acetyl-β-D-galactopyranosyl)-β-D-glucopyranoside] | – | Soluble in chloroform, methanol, and ethanol. Hardly soluble in water and various buffer solutions. | –
CO[C@@H]1O[C@H](COC(C)=O)[C@@H](O[C@@H]2O[C@H](COC3CCCCO3)[C@H](OC(C)=O)[C@H](OC(C)=O)[C@H]2OC(C)=O)[C@H](OC(C)=O)[C@H]1NC(C)=O (stereo partly drawn) [intermediate g, methyl-2-acetamide-3,6-di-O-acetyl-2-deoxy-4-O-(2,3,4-tri-O-acetyl-6-O-tetrahydropyranyl-β-D-galactopyranosyl)-β-D-glucopyranoside] | – | Soluble in chloroform, methanol, and ethanol. Hardly soluble in water and various buffer solutions. | –
CO[C@@H]1O[C@H](COC(C)=O)[C@@H](O[C@@H]2O[C@H](COS(=O)(=O)c3ccc(C)cc3)[C@H](OC(C)=O)[C@H](OC(C)=O)[C@H]2OC(C)=O)[C@H](OC(C)=O)[C@H]1NC(C)=O [intermediate h, methyl-2-acetamide-3,6-di-O-acetyl-2-deoxy-4-O-(2,3,4-tri-O-acetyl-6-O-p-toluenesulfonyl-β-D-galactopyranosyl)-β-D-glucopyranoside] | – | Soluble in chloroform, methanol, and ethanol. Hardly soluble in water and various buffer solutions. | –
CO[C@@H]1O[C@H](COC(C)=O)[C@@H](O[C@@H]2O[C@H](CSC(C)=O)[C@H](OC(C)=O)[C@H](OC(C)=O)[C@H]2OC(C)=O)[C@H](OC(C)=O)[C@H]1NC(C)=O [intermediate i, methyl-2-acetamide-3,6-di-O-acetyl-2-deoxy-4-O-(2,3,4-tri-O-acetyl-6-S-acetyl-6-deoxy-β-D-galactopyranosyl)-β-D-glucopyranoside] | – | Soluble in chloroform, methanol, and ethanol. Hardly soluble in water and various buffer solutions. | –
2-acetamide-2-deoxy-4-O-(6-deoxy-β-D-galactopyranosyl)-β-D-glucopyranosylated ovalbumin (conjugate, UniProt P01012 2-386, looked up, glycosylated with fucosyl-GlcNAc disaccharide, sugar compound represented by the aforementioned formula (1) in which R^1 is ovalbumin and R^2 is hydrogen) Ovalbumin: GSIGAASMEFCFDVFKELKVHHANENIFYCPIAIMSALAMVYLGAKDSTRTQINKVVRFDKLPGFGDSIEAQCGTSVNVHSSLRDILNQITKPNDVYSFSLASRLYAEERYPILPEYLQCVKELYRGGLEPINFQTAADQARELINSWVESQTNGIIRNVLQPSSVDSQTAMVLVNAIVFKGLWEKAFKDEDTQAMPFRVTEQESKPVQMMYQIGLFRVASMASEKMKILELPFASGTMSMLVLLPDEVSGLEQLESIINFEKLTEWTSSNVMEERKIKVYLPRMKMEEKYNLTSVLMAMGITDVFSSSANLSGISSAESLKISQAVHAAHAEINEAGREVVGSAEAGVDAASVSEEFRADHPFLFCIKHIATNAVLFFGRCVSP | – | Soluble in water and various buffer solutions. Hardly soluble in organic solvents. | –
2-acetamide-2-deoxy-4-O-(6-deoxy-β-D-galactopyranosyl)-β-D-glucopyranosylated glycophorin (conjugate, UniProt P02724 20-150, looked up, glycosylated with fucosyl-GlcNAc disaccharide, sugar compound represented by the aforementioned formula (1) in which R^1 is glycophorin and R^2 is hydrogen) Glycophorin-A: LSTTEVAMHTSTSSSVTKSYISSQTNDTHKRDTYAATPRAHEVSEISVRTVYPPEEETGERVQLAHHFSEPEITLIIFGVMAGVIGTILLISYGIRRLIKKSPSDVKPLPSPDTDVPLSSVEIENPETSDQ | 2.7 | Soluble in water and various buffer solutions. Hardly soluble in organic solvents. | –
